The values that follow come from patent US9221781B2, “Synthesis of polyhydroxy chromenone compounds and their anti-tumor effects” (BEIJING SHENOGEN PHARMA GROUP LTD., priority 2012, dated 2015).

Assay [1] has as its system human breast cancer BCAP-37 xenograft tumor. In words: Inhibition of growth of human breast cancer BCAP-37 cells xenograft tumor in nude mice. It is filed as in vivo. The conditions noted are these: BCAP-37 tumor bearing nude mice, 0.7 mg/mouse/day, 20 days of continuous administration, FIG. 9. Here is the method:
Nude mice with breast cancer xenografts were treated with the test compounds to test their effect on inhibiting tumor growth. Tumor tissues were taken from nude mice bearing BCAP-37 breast cancer and cut into small pieces. Several pieces of the tumor tissues were implanted into the armpit under the right front limb of female nude mice. After the implantation, the mice are fed with E2β solution once a day at the dosage of 7 μg per mouse for 6 days to stimulate growth of tumor in the experiment mice. Starting on the seventh day, the mice were intragastric administered with the test solution containing the compounds and corn oil at the dosage of 35 mg/kg. Tamoxifen was used as a positive control. Corn oil was used as a negative control. The test solution was prepared by dispersing test compound in corn oil solution. (20 mg/mL). […] Then the mice were sacrificed and the tumor tissues were dissected and weighed. The tumor growth inhibition rate was a percentage calculated using the formula: tumor growth inhibition rate=(average weight of the tumor in the negative control−average weight of the tumor treated with test compound)/average weight of the tumor in the negative control.
(In xenograft studies the graft and the host belong to different species.)

For assay [2], the system named is gastric cancer BGC-823 cells. In words: Inhibition of gastric cancer cell BGC-823 in vitro by MTT method. To be noted: Homo sapiens; BGC-823, MTT, 72 hours, FIG. 4; read-out: IC50, in vitro inhibition on cell line BGC-823 of gastric cancer. It is filed as cell-based. Here is the method: A: Inhibition of Gastric Cancer Cell BGC-823 In Vitro by the Compounds by MTT Method
The gastric cancer BGC-823 cells were subseeded in a 96-well culture plate at a concentration of 3×10^3 cells/well and maintained in phenol red free DMEM medium containing 2.5% CS-FBS at 37° C. in a 5% CO2 atmosphere. BGC-823 cells were treated with a test compound dissolved in DMSO at the concentration of 0, 1, 2, 4, 8, 10 and 20 μM for 72 hours. OD value was tested by MTT method, and the inhibition percentage was calculated.
Background: Tetrazolium assays rely on reduction of a dye to a coloured formazan, in cell work by metabolically active cells.

For assay [3], the system named is human endometrial cancer Ishikawa cells xenograft tumor. In words: Inhibition of growth of human endometrial cancer Ishikawa cells xenografts in nude mice. It is filed as in vivo. To be noted: FIG. 11. The protocol:
Nude mice with Human endometrial cancer Ishikawa cells Xenograft Tumor were treated with the test compounds to test their effect on inhibiting tumor growth. Tumor was taken from nude mice with Ishikawa cells and cut into small pieces. Small pieces of tumor were implanted into the armpit under the right front limb of female nude mice. After the implantation, the mice were injected with E2β solution once a day at the dosage of 7 μg per mouse for 6 days to stimulate growth in the expriment mice. […] Medroxyprogesterone acetate was used as a positive control. Mixed oil was used as a negative control. The test compound was dispersed in mixed oil (20 mg/mL). […] Then the mice were sacrificed and the tumor tissues were dissected and weighed. The tumor growth inhibition rate was a percentage calculated using the formula: tumor growth inhibition rate=(average weight of the tumor in the negative control—average weight of the tumor treated with test compound) / average weight of the tumor in the negative control. The result is drawn as bar graph, referring to FIG. 11.

The subject of assay [4] is HL-60 cells. Description: Inhibition of growth of acute myeloblastic leukemia HL-60 cells by MTT method. It is filed as cell-based, human. The conditions noted are these: Homo sapiens, 10^−6M, 72 hours, read-out: The inhibition percentage of cell proliferation by the compounds with a concentration of 10^−6M, HL-60 cells. Here is the method:
A: Inhibition of Growth of Acute Myeloblastic Leukemia HL-60 Cells by the Compounds Detected by MTT Method
The acute myeloblastic leukemia HL-60 cells from ATCC were maintained in IMDM and 10% fetal calf serum at 37° C. in a 5% CO2 atmosphere. The cells were subseeded in a 96-well culture plate at a concentration of 6×10^3 cells/well. HL-60 cells were treated with a test compound dissolved in DMSO at the concentration of 0, 10^−4M, 10^−5M, 10^−6M, 10^−7M, 10^−8M for 72 hours. OD value was tested by MTT method, and the inhibition ratio was calculated.

Assay [5] has as its system K562 cells. In words: Viability of chronic leukemia cells K562 by CellTiter-Glo Luminescent Assay in vitro. It is filed as cell-based, human. To be noted: Homo sapiens, 72 hours, read-out: Inhibition of viability of cells in vitro IC50, K562 cells. The protocol:
A: Detection of Viability of Chronic Leukemia Cells K562 by CellTiter-Glo® Luminescent Assay In Vitro
The chronic leukemia cells K562 from ATCC were maintained in IMDM and 10% fetal calf serum at 37° C. in a 5% CO2 atmosphere. The cells were subseeded in a 96-well culture plate at a cencentration of 6×10^3 cells/well.K562 cells were treated with a test compound dissolved in DMSO at the concentration of 0, 0.3 μM, 0.5 μM, 1 μM, 2 μM, 3 μM, 5 μM, 10 μM, 20 μM, 30 μM, 50 μM and 100 μM for 72 hours. Treated cells were examined by CellTiter-Glo® Luminescent Cell Viability Assay Kit (Promega), and luminescence were recorded with Envision.

Assay [6] deals with pancreatic cancer PANC-1 cells. In words: Inhibition of pancreatic cancer cells PANC-1 in vitro by MTT method. It is filed as cell-based. To be noted: Homo sapiens; PANC-1, MTT, 72 hours, FIG. 7; read-out: IC50, in vitro inhibition on cell line PANC-1 of pancreatic cancer. The protocol:
A: Inhibition of Pancreatic Cancer Cells PANC-1 In Vitro by the Compounds by MTT Method
The pancreatic cancer PANC-1 cells were subseeded in a 96-well culture plate at a concentration of 3×10^3 cells/well and maintained in phenol red free 1640 medium containing 2.5% CS-FBS at 37° C. in a 5% CO2 atmosphere. PANC-1 cells were treated with a test compound dissolved in DMSO at the concentration of 0, 1, 2, 4, 8, 10 and 20 μM for 72 hours. OD value was tested by MTT method, and the inhibition percentage was calculated.

Assay [7] relates to colon cancer LS174T cells. In words: Inhibition of colon cancer cells LS174T in vitro by MTT method. It is filed as cell-based. The conditions noted are these: Homo sapiens, 72 hours, FIG. 6, read-out: IC50, in vitro inhibition on cell line LS174T of colon carcinoma. The protocol: A: Inhibition of Colon Cancer Cells LS174T In Vitro by the Compounds by MTT Method
The colon cancer LS174T cells were subseeded in a 96-well culture plate at a concentration of 4.5×10^3 cells/well and maintained in phenol red free 1640 medium containing 2.5% CS-FBS at 37° C. in a 5% CO2 atmosphere. LS174T cells were treated with a test compound dissolved in DMSO at the concentration of 0, 1, 2, 4, 8, 10 and 20 μM for 72 hours. OD value was tested by MTT method, and the inhibition percentage was calculated.

pIC50: −log10 of the molar value.

As usually defined, the pIC50 is −log10 of the IC50, conventionally taken in molar units. For the compound `CC(C)=CCc1c(O)cc(O)c2c(=O)c(O)c(-c3ccc(C(F)(F)F)cc3)oc12` [Compound 1, 2-(4-trifluoromethylphenyl)-3,5,7-trihydroxy-8-(3-methyl-2-buten-1-yl)-4H-chromen-4-one], the “average tumor weight, inhibition on the tumors” value in assay [1] is given as “inhibition of compound on the tumors”. Moreover, the pIC50 in assay [2] is 5.40 to 6.00; in assay [5] it was 5.99; in assay [6], 5.40 to 6.00; in assay [7], 5.40 to 6.00. In addition, the “average tumor weight, inhibition on tumor growth” value in assay [3] (Ishikawa bearing nude mice, 17.5, 35 and 70 mg/kg, 20 days of continuous administration) is given as “dominant inhibition on tumor growth”. Further, in assay [3] (Ishikawa bearing nude mice, versus DMPA 120 mg/kg, 20 days), the “inhibition effect compared with control drug DMPA” value is “higher than control drug”. Also, the inhibition at 1 µM in assay [4] amounted to 60.7%.
